In the test the test system is RS4;11 cells. Description: RS4;11 cell viability assay (CellTiter Glo).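 Also: acute lymphoblastic leukemia line RS4,11, EC50 derived from percentage of viable cells after treatment relative to untreated controls, cell killing taken as a measure of Bcl-2 inhibition.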 The class given is cell-based, human. To be noted: Homo sapiens, RS4-11, 48 h, 50,000 cells per well, 10% human serum, 48 hours; read-out: RS4; 11 EC50 Values. (In general: Cellular ATP, detected with luciferase, serves as a proxy for viable cell number.)
Protocol: The acute lymphoblastic leukemia (ALL) cell line RS4;11 was used as the primary human cell line to assess the cellular activity of Bcl-2 selective agents in vitro and their efficacy in vivo.
Cell cytotoxicity EC50 values were assessed using CellTiter Glo (Promega) according to the manufacturer's recommendations. The EC50 values were determined as a percentage of viable cells following treatment compared to the untreated control cells.
On to `CC(=O)N1CCCC(CNc2ccc(S(=O)(=O)NC(=O)c3ccc(N4CCN(CC5=C(c6ccc(Cl)cc6)CC(C)(C)CC5)CC4)cc3Oc3cnc4[nH]ccc4c3)cc2[N+](=O)[O-])C1` (stereo not shown) [Example 148, N-[(4-{[(1-acetylpiperidin-3-yl)methyl]amino}-3-nitrophenyl)sulfonyl]-4-(4-{[2-(4-chlorophenyl)-4,4-dimethylcyclohex-1-en-1-yl]methyl}piperazin-1-yl)-2-(1H-pyrrolo[2,3-b]pyridin-5-yloxy)benzamide], for which the EC50 stood at 9.38 nM. Next, `CC1(C)CCC(CN2CCN(c3ccc(C(=O)NS(=O)(=O)c4ccc(N[C@@H]5CCN(S(C)(=O)=O)C5)c([N+](=O)[O-])c4)c(Oc4cnc5[nH]ccc5c4)c3)CC2)=C(c2ccc(Cl)cc2)C1` [Example 149, 4-(4-{[2-(4-chlorophenyl)-4,4-dimethylcyclohex-1-en-1-yl]methyl}piperazin-1-yl)-N-[(4-{[(3R)-1-(methylsulfonyl)pyrrolidin-3-yl]amino}-3-nitrophenyl)sulfonyl]-2-(1H-pyrrolo[2,3-b]pyridin-5-yloxy)benzamide]: 13.5 nM. In the case of `CC1(C)CCCC(CN2CCN(c3ccc(C(=O)NS(=O)(=O)c4ccc(NCC5CCOCC5)c([N+](=O)[O-])c4)c(Oc4cnc5[nH]ccc5c4)c3)CC2)=C1c1ccc(Cl)cc1` [Example 150, 4-(4-{[2-(4-chlorophenyl)-3,3-dimethylcyclohex-1-en-1-yl]methyl}piperazin-1-yl)-N-({3-nitro-4-[(tetrahydro-2H-pyran-4-ylmethyl)amino]phenyl}sulfonyl)-2-(1H-pyrrolo[2,3-b]pyridin-5-yloxy)benzamide], the EC50 is 51 nM. With `CC1(C)CCC(CN2CCN(c3ccc(C(=O)NS(=O)(=O)c4ccc(NC5CN(C(CF)CF)C5)c([N+](=O)[O-])c4)c(Oc4cnc5[nH]ccc5c4)c3)CC2)=C(c2ccc(Cl)cc2)C1` [Example 151, 4-(4-{[2-(4-chlorophenyl)-4,4-dimethylcyclohex-1-en-1-yl]methyl}piperazin-1-yl)-N-{[4-({1-[2-fluoro-1-(fluoromethyl)ethyl]azetidin-3-yl}amino)-3-nitrophenyl]sulfonyl}-2-(1H-pyrrolo[2,3-b]pyridin-5-yloxy)benzamide] the figure was 33.7 nM; with `CC1(C)CCC(CN2CCN(c3ccc(C(=O)NS(=O)(=O)c4ccc(NCC5CCN(S(C)(=O)=O)C5)c([N+](=O)[O-])c4)c(Oc4cnc5[nH]ccc5c4)c3)CC2)=C(c2ccc(Cl)cc2)C1` (stereo not shown) [Example 152, 4-(4-{[2-(4-chlorophenyl)-4,4-dimethylcyclohex-1-en-1-yl]methyl}piperazin-1-yl)-N-{[4-({[1-(methylsulfonyl)pyrrolidin-3-yl]methyl}amino)-3-nitrophenyl]sulfonyl}-2-(1H-pyrrolo[2,3-b]pyridin-5-yloxy)benzamide], 20.4 nM.

With `CC(=O)N1CCC(CNc2ccc(S(=O)(=O)NC(=O)c3ccc(N4CCN(CC5=C(c6ccc(Cl)cc6)CC(C)(C)CC5)CC4)cc3Oc3cnc4[nH]ccc4c3)cc2[N+](=O)[O-])C1` (stereo not shown) [Example 153, N-[(4-{[(1-acetylpyrrolidin-3-yl)methyl]amino}-3-nitrophenyl)sulfonyl]-4-(4-{[2-(4-chlorophenyl)-4,4-dimethylcyclohex-1-en-1-yl]methyl}piperazin-1-yl)-2-(1H-pyrrolo[2,3-b]pyridin-5-yloxy)benzamide], the EC50 is 17.2 nM.

As for `CC(=O)N1CC[C@@H](Nc2ccc(S(=O)(=O)NC(=O)c3ccc(N4CCN(CC5=C(c6ccc(Cl)cc6)CC(C)(C)CC5)CC4)cc3Oc3cnc4[nH]ccc4c3)cc2[N+](=O)[O-])C1` [Example 154, N-[(4-{[(3R)-1-acetylpyrrolidin-3-yl]amino}-3-nitrophenyl)sulfonyl]-4-(4-{[2-(4-chlorophenyl)-4,4-dimethylcyclohex-1-en-1-yl]methyl}piperazin-1-yl)-2-(1H-pyrrolo[2,3-b]pyridin-5-yloxy)benzamide], the EC50 is 26.5 nM. With `COCC(C)(C)CNc1ccc(S(=O)(=O)NC(=O)c2ccc(N3CCN(CC4=C(c5ccc(Cl)cc5)CC(C)(C)CC4)CC3)cc2Oc2cnc3[nH]ccc3c2)cc1[N+](=O)[O-]` [Example 155, 4-(4-{[2-(4-chlorophenyl)-4,4-dimethylcyclohex-1-en-1-yl]methyl}piperazin-1-yl)-N-({4-[(3-methoxy-2,2-dimethylpropyl)amino]-3-nitrophenyl}sulfonyl)-2-(1H-pyrrolo[2,3-b]pyridin-5-yloxy)benzamide], the EC50 was found to be 594 nM. With `CC1(C)CCC(CN2CCN(c3ccc(C(=O)NS(=O)(=O)c4ccc(NC[C@@H]5CC[C@@H](O)C5)c([N+](=O)[O-])c4)c(Oc4cnc5[nH]ccc5c4)c3)CC2)=C(c2ccc(Cl)cc2)C1` [Example 156, 4-(4-{[2-(4-chlorophenyl)-4,4-dimethylcyclohex-1-en-1-yl]methyl}piperazin-1-yl)-N-{[4-({[(1R,3R)-3-hydroxycyclopentyl]methyl}amino)-3-nitrophenyl]sulfonyl}-2-(1H-pyrrolo[2,3-b]pyridin-5-yloxy)benzamide] the figure was 8.05 nM. Regarding `CC1(C)CCC(CN2CCN(c3ccc(C(=O)NS(=O)(=O)c4ccc(NC[C@H]5CC[C@H](O)C5)c([N+](=O)[O-])c4)c(Oc4cnc5[nH]ccc5c4)c3)CC2)=C(c2ccc(Cl)cc2)C1` [Example 157, 4-(4-{[2-(4-chlorophenyl)-4,4-dimethylcyclohex-1-en-1-yl]methyl}piperazin-1-yl)-N-{[4-({[(1S,3S)-3-hydroxycyclopentyl]methyl}amino)-3-nitrophenyl]sulfonyl}-2-(1H-pyrrolo[2,3-b]pyridin-5-yloxy)benzamide], the EC50 amounted to 10.9 nM. Regarding `CC1(C)CCC(CN2CCN(c3ccc(C(=O)NS(=O)(=O)c4ccc(NC[C@H]5CC[C@@H](O)C5)c([N+](=O)[O-])c4)c(Oc4cnc5[nH]ccc5c4)c3)CC2)=C(c2ccc(Cl)cc2)C1` [Example 158, 4-(4-{[2-(4-chlorophenyl)-4,4-dimethylcyclohex-1-en-1-yl]methyl}piperazin-1-yl)-N-{[4-({[(1S,3R)-3-hydroxycyclopentyl]methyl}amino)-3-nitrophenyl]sulfonyl}-2-(1H-pyrrolo[2,3-b]pyridin-5-yloxy)benzamide], the EC50 came out at 17.9 nM. With `CC1(C)CCC(CN2CCN(c3ccc(C(=O)NS(=O)(=O)c4ccc(NC[C@@H]5CC[C@H](O)C5)c([N+](=O)[O-])c4)c(Oc4cnc5[nH]ccc5c4)c3)CC2)=C(c2ccc(Cl)cc2)C1` [Example 159, 4-(4-{[2-(4-chlorophenyl)-4,4-dimethylcyclohex-1-en-1-yl]methyl}piperazin-1-yl)-N-{[4-({[(1R,3S)-3-hydroxycyclopentyl]methyl}amino)-3-nitrophenyl]sulfonyl}-2-(1H-pyrrolo[2,3-b]pyridin-5-yloxy)benzamide] the figure was 11.8 nM; with `CC1(C)CCC(CN2CCN(c3ccc(C(=O)NS(=O)(=O)c4ccc(N[C@H]5CCCNC5=O)c([N+](=O)[O-])c4)c(Oc4cnc5[nH]ccc5c4)c3)CC2)=C(c2ccc(Cl)cc2)C1` [Example 160, 4-(4-{[2-(4-chlorophenyl)-4,4-dimethylcyclohex-1-en-1-yl]methyl}piperazin-1-yl)-N-[(3-nitro-4-{[(3S)-2-oxopiperidin-3-yl]amino}phenyl)sulfonyl]-2-(1H-pyrrolo[2,3-b]pyridin-5-yloxy)benzamide], 83.6 nM.

For the origin of these results see patent US20240043404A1 (AbbVie Inc., priority 2009, published 2024).
